This is an account of results in patent US20220039383A1, “Use of the Succinate Dehydrogenase Inhibitor Fluopyram for Controlling Claviceps Purpurea and Reducing Sclerotia in Cereals” (Bayer Aktiengesellschaft, priority 2018, published 2022).

Test [1] has as its system spring wheat variety CTC Utmost. In words: Field test plot 2017, Canada: yield of spring wheat treated against Claviceps purpurea. It is filed as in vivo. The note with it: EC 150 g/l, 1.333 L/HA, 200 g/ha, untreated = 100. As for the experimental part:
(§1) In Canada, in 2017, a test plot was conducted with the spring wheat variety CTC Utmost. Fluopyram as well as market standards were applied according to table 1 on July 7th between BBCH stage59 and 61 (. Assessment of sclerotia was done in fall 2017 96 days post application.

Test [2] deals with Claviceps purpurea. In words: Field test plot 2017, Canada: foliar application, assessment of sclerotia (ergot bodies) in spring wheat CTC Utmost. It is filed as in vivo. Conditions: EC 150 g/l, 1.333 L/HA, 200 g/ha, applied BBCH 59-61, 96 days post application. How it is done: as §1

`O=C(NCCc1ncc(C(F)(F)F)cc1Cl)c1ccccc1C(F)(F)F` [Fluopyram, N-{[3-chloro-5-(trifluoromethyl)-2-pyridinyl]ethyl}-2-trifluoromethylbenzamide]: the “% yield compared to Untreated” value in test [1] was 109.85%. In addition, in test [2], the “Number of Ergot bodies per kg seed” value was determined as 5 per kg seed.
